Results from ChEMBL document CHEMBL1122538, “Functional group contributions to drug-receptor interactions” (J Med Chem, 1984).

test: Binding energy by using the equation deltaG obsd = -RT ln KD; format: ADME

Row | Compound | Binding energy
1 | Nc1ncnc2c1ncn2[C@@H]1O[C@H](CO)C[C@H]1O [CORDYCEPIN] | 8.2 kcal/mol
2 | C[C@]12C[C@H](O)[C@H]3[C@@H](CCC4=CC(=O)CC[C@@]43C)[C@@H]1CC[C@@H]2C(=O)CO [CORTICOSTERONE] | 11.6 kcal/mol
3 | NC1(C(=O)O)CCCC1 [CYCLOLEUCINE] | 4.9 kcal/mol
4 | CN1CCC(=C2c3ccccc3C=Cc3ccccc32)CC1 [CYPROHEPTADINE] | 12.8 kcal/mol
5 | O=c1cccc2n1C[C@@H]1CNC[C@H]2C1 [CYTISINICLINE] | 12.1 kcal/mol
6 | CNCCCN1c2ccccc2CCc2ccccc21 [DESIPRAMINE] | 12.2 kcal/mol
7 | C[C@@H]1C[C@H]2[C@@H]3CCC4=CC(=O)C=C[C@]4(C)[C@@]3(F)[C@@H](O)C[C@]2(C)[C@@]1(O)C(=O)CO [DEXAMETHASONE] | 10.9 kcal/mol
8 | OC[C@H]1OC(O)[C@H](O)[C@@H](O)[C@@H]1O (stereo partly specified) [DEXTROSE] | 8.7 kcal/mol
9 | CN1C(=O)CN=C(c2ccccc2)c2cc(Cl)ccc21 [DIAZEPAM] | 11.5 kcal/mol
10 | O=C(O)Cc1ccccc1Nc1c(Cl)cccc1Cl [DICLOFENAC] | 9.6 kcal/mol
11 | O=c1oc2ccccc2c(O)c1Cc1c(O)c2ccccc2oc1=O [DICUMAROL] | 8.8 kcal/mol
12 | ClC1=C(Cl)[C@]2(Cl)[C@@H]3[C@@H]4C[C@@H]([C@H]5O[C@@H]45)[C@@H]3[C@@]1(Cl)C2(Cl)Cl [DIELDRIN] | 6.1 kcal/mol
13 | CCCCC[C@H](O)/C=C/[C@H]1[C@H](O)CC(=O)[C@@H]1C/C=C\CCCC(=O)O [DINOPROSTONE] | 11.5 kcal/mol
14 | CCCCC[C@H](O)/C=C/[C@@H]1[C@@H](C/C=C\CCCC(=O)O)[C@@H](O)C[C@H]1O [DINOPROST] | 9.2 kcal/mol
15 | O=c1[nH]c2ccccc2n1CCCN1CCC(n2c(=O)[nH]c3cc(Cl)ccc32)CC1 [DOMPERIDONE] | 13.8 kcal/mol
16 | NCCc1ccc(O)c(O)c1 [DOPAMINE] | 11.8 kcal/mol
17 | CN(C)CCC=C1c2ccccc2COc2ccccc21 [DOXEPIN] | 13.1 kcal/mol
18 | C[C@]12CC[C@@H]3c4ccc(O)cc4CC[C@H]3[C@@H]1CC[C@@H]2O [ESTRADIOL] | 13.2 kcal/mol
19 | CCN [ETHYLAMINE] | 2.2 kcal/mol
20 | O=C(O)Cc1ccccc1Oc1ccc(Cl)cc1Cl [FENCLOFENAC] | 9.2 kcal/mol
21 | CC(C(=O)O)c1ccc(-c2ccccc2)c(F)c1 (stereo unspecified) [FLURBIPROFEN] | 9.1 kcal/mol

Row | Compound | Binding energy
22 | O=C1NCN(c2ccccc2)C12CCN(CCCC(c1ccc(F)cc1)c1ccc(F)cc1)CC2 [FLUSPIRILENE] | 11.6 kcal/mol
23 | Cc1ccc(F)cc1NC1=NCCN1 [FLUTONIDINE] | 11.4 kcal/mol
24 | O=P(O)(O)OC[C@H]1OC(O)(COP(=O)(O)O)[C@@H](O)[C@@H]1O (stereo partly specified) [FOSFRUCTOSE] | 10.2 kcal/mol
25 | NCCCC(=O)O [GAMMA-AMINOBUTYRIC ACID] | 10.9 kcal/mol
26 | N=C(N)N/N=C/c1c(Cl)cccc1Cl [GUANABENZ] | 12.3 kcal/mol
27 | N=C(N)NC(=O)Cc1c(Cl)cccc1Cl [GUANFACINE] | 11.9 kcal/mol
28 | O=C(CCCN1CCC(O)(c2ccc(Cl)cc2)CC1)c1ccc(F)cc1 [HALOPERIDOL] | 12.3 kcal/mol
29 | CC(C)Cc1ccc(C(C)C(=O)O)cc1 (stereo unspecified) [IBUPROFEN] | 8.3 kcal/mol
30 | O=C(NC1CCN(CCc2c[nH]c3ccccc23)CC1)c1ccccc1 [INDORAMIN] | 11.5 kcal/mol
31 | CC[C@H](C)[C@H](N)C(=O)O [ISOLEUCINE] | 7.1 kcal/mol
32 | O=C(c1ccc(F)cc1)C1CCN(CCn2c(=O)[nH]c3ccccc3c2=O)CC1 [KETANSERIN] | 12.8 kcal/mol
33 | C[C@H]1[C@H]2C(=O)c3ccc(O)cc3[C@]1(C)CCN2CC1CC1 [KETAZOCINE] | 11.4 kcal/mol
34 | CCC(=O)C1(c2cccc(O)c2)CCN(C)CC1 [KETOBEMIDONE] | 10.8 kcal/mol
35 | N[C@@H](Cc1cc(I)c(Oc2cc(I)c(O)c(I)c2)c(I)c1)C(=O)O [LEVOTHYROXINE] | 10.3 kcal/mol
36 | Cl[C@H]1[C@H](Cl)[C@@H](Cl)[C@@H](Cl)[C@H](Cl)[C@H]1Cl [LINDANE] | 6.1 kcal/mol
37 | CC(Oc1c(Cl)cccc1Cl)C1=NCCN1 (stereo unspecified) [LOFEXIDINE] | 11.8 kcal/mol
38 | O=C1Nc2ccc(Cl)cc2C(c2ccccc2Cl)=NC1O (stereo unspecified) [LORAZEPAM] | 11.6 kcal/mol
39 | CCN(CC)C(=O)[C@@H]1C=C2c3cccc4[nH]cc(c34)C[C@H]2N(C)C1 [LYSERGIDE] | 12.7 kcal/mol
40 | CC(=O)O[C@]1(C(C)=O)CC[C@H]2[C@@H]3C[C@H](C)C4=CC(=O)CC[C@]4(C)[C@H]3CC[C@@]21C [MEDROXYPROGESTERONE ACETATE] | 10.2 kcal/mol
41 | CCC1(c2ccccc2)C(=O)NC(=O)N(C)C1=O (stereo unspecified) [MEPHOBARBITAL] | 7.3 kcal/mol
42 | COc1cc(CCN)cc(OC)c1OC [MESCALINE] | 7.1 kcal/mol

Row | Compound | Binding energy
43 | CN1C[C@H](CNC(=O)OCc2ccccc2)C[C@@H]2c3cccc4c3c(cn4C)C[C@H]21 [METERGOLINE] | 13 kcal/mol
44 | CCC(=O)C(CC(C)N(C)C)(c1ccccc1)c1ccccc1 (stereo unspecified) [METHADONE] | 11.8 kcal/mol
45 | CCC1(CC)C(=O)NC(=O)N(C)C1=O [METHARBITAL] | 6.8 kcal/mol
46 | CN(Cc1cnc2nc(N)nc(N)c2n1)c1ccc(C(=O)N[C@@H](CCC(=O)O)C(=O)O)cc1 [METHOTREXATE] | 12.9 kcal/mol
47 | CC[C@@H](CO)NC(=O)[C@@H]1C=C2c3cccc4c3c(cn4C)C[C@H]2N(C)C1 [METHYSERGIDE] | 12.3 kcal/mol
48 | Cc1nc(N)nc(N)c1-c1ccc(Cl)c(Cl)c1 [METOPRINE] | 12.3 kcal/mol
49 | CN1CCN2c3ccccc3Cc3ccccc3C2C1 (stereo unspecified) [MIANSERIN] | 12.5 kcal/mol
50 | NCc1cc(=O)[nH]o1 [MUSCIMOL] | 11.9 kcal/mol
51 | c1ccc2c(CC3=NCCN3)cccc2c1 [NAPHAZOLINE] | 11.9 kcal/mol
52 | COc1ccc2cc([C@H](C)C(=O)O)ccc2c1 [NAPROXEN] | 8.5 kcal/mol
53 | CN1CCC[C@H]1c1cccnc1 [NICOTINE] | 11.2 kcal/mol
54 | CNCCC(Oc1ccccc1OC)c1ccccc1 (stereo unspecified) [NISOXETINE] | 11.5 kcal/mol
55 | CN1Cc2c(N)cccc2C(c2ccccc2)C1 (stereo unspecified) [NOMIFENSINE] | 8.8 kcal/mol
56 | NC[C@H](O)c1ccc(O)c(O)c1 [NOREPINEPHRINE] | 12.1 kcal/mol
57 | C[C@@H]1O[C@@H](O[C@H]2C[C@@H](O)[C@]3(CO)[C@H]4[C@H](O)C[C@]5(C)[C@@H](C6=CC(=O)OC6)CC[C@]5(O)[C@@H]4CC[C@]3(O)C2)[C@H](O)[C@H](O)[C@H]1O [OUABAIN] | 11.5 kcal/mol
58 | O=C(O)C(=O)O [OXALIC ACID] | 7.8 kcal/mol
59 | O=C1CCCN1CC#CCN1CCCC1 [OXOTREMORINE] | 11.7 kcal/mol
60 | Cc1cc(C(C)(C)C)c(O)c(C)c1CC1=NCCN1 [OXYMETAZOLINE] | 12.2 kcal/mol
61 | O=c1[nH]c(=O)c2c[nH]nc2[nH]1 [OXYPURINOL] | 12.6 kcal/mol
